How the values were obtained:
p53 [1] = experiment: Phosphorylation of p53 (p53S46P, p53S15P) in Env-elicited syncytia; format: cell-based; settings: 36 h coculture, SB203580, SB202190, SB202474 100 nM, LY294002 1 µM, PD98059 5 µM, anti-sense HIPK2 100 nM, Fig. 10
Procedure: Figures 10A and 10C. […] HeLa Env and HeLa CD4 cells were cocultured for 36h in the presence of the indicated agents followed by the determination of the frequency of p53S46P+ syncytia. Results are means of three independent experiments.
Figure 10B. […] Syncytia were generated as in figure 10A, after transfection with anti-sense HIPK2 phosphorothioate oligonucleotides (100 nM) or a scrambled control olignonucleotide (Co.), followed by immunofluorescence detection of p53S46P.
(§1) Transfection with pcDNA3.1 vector only, or p38 DN plasmids (gift by Roger Davis), or HPLC-purified anti-sense HIPK2 phosphorothioate oligonucleotides (100 nM) and control were transfected with Lipofectamine (Invitrogen) into HeLa CD4 cells, 24 h before co-culture with HeLa Env cells. Transfection with pcDNA3.1 vector only or a p53-responsive enhanced green fluorescent (GFP) plasmid (kind gift from Klas Wiman) was performed 24 hours before coculture of HeLa CD4 and HeLa Env cells. The frequency of GFP-expressing cells was assessed by cytofluorometry, on a FACS Vantage (Becton Dickinson) equipped with a 100 µm nozzle, allowing for the analysis of relatively large cells.

Env-elicited syncytia [2] = format: cell-based
Procedure: (§2) HeLa/U937 cell co-cultures were performed at different ratios (6). U937 or Jurkat cells were cultured with recombinant gp120 protein (500 ng/ml).

p53 [3] = format: cell-based; settings: syncytia, 24 hours; SN50 20 µM, roscovitin 1 µM; Fig. 3B
Procedure: The frequency of GFP-expressing cells was assessed by cytofluorometry, on a FACS Vantage (Becton Dickinson) equipped with a 100 µm nozzle, allowing for the analysis of relatively large cells.
as §1

Env-elicited syncytia [4] = experiment: Karyogamy and cyclin B accumulation in Env-elicited syncytia; format: cell-based; settings: SN50 20 µM, roscovitin 1 µM; Fig. 3D
Procedure: Figure 3D. […] Syncytia were treated with various drugs as in B, and the frequency of karyogamic cells was scored.
as §2

Env-induced syncytia = settings: reference (5); cited from earlier work

In the case of `COc1cccc(-c2cc(=O)c3ccccc3o2)c1N` [PD98059], the “frequency of p53S46P+ syncytia (p53S46P)” value (p53 [1]; 500 mM caffeine) was “failed to affect”.

With `Oc1ccc(-c2nc(-c3ccc(F)cc3)c(-c3ccncc3)[nH]2)cc1` [SB202190] the “frequency of p53S46P+ syncytia (p53S46P)” value (p53 [1]; 500 mM caffeine) was “strongly reduced”.

In the case of `CCc1nc(-c2ccc(OC)cc2)[nH]c1-c1ccncc1` [SB202474], the “frequency of p53S46P+ syncytia (p53S46P)” value (p53 [1]; 500 mM caffeine) was “not”.

For `Cn1c(=O)c2c(ncn2C)n(C)c1=O` [caffeine], the “frequency of p53S46P+ syncytia (p53S46P)” value (p53 [1]; caffeine) was “no effect” and the “propensity of syncytia to undergo apoptosis” value (Env-elicited syncytia [2]) was “did not reduce”.

In the case of `CC[C@H](CO)Nc1nc(NCc2ccccc2)c2ncn(C(C)C)c2n1` [roscovitine], the “p53-dependent transcription (p53-inducible GFP construct)” value (p53 [3]) is given as “inhibited”, the “emergence of karyogamic syncytia (karyogamy)” value (Env-elicited syncytia [4]) is given as “inhibiting” and the syncytium-dependent cell death (Env-induced syncytia) is given as “blocked”.

Source: patent EP1542016A1, “PUMA, phosphorylated p53 and p38 map kinase as markers for HIV-1-induced apoptosis in circulating T cells of infected patient” (Institut Gustave Roussy, priority 2003, dated 2005)
